The EC50 is the concentration giving half of the maximal effect. A high value points to lower potency in that assay. A word on the Kd: it is the concentration at which binding is half-saturated. A word on the IC50: it is the point on the concentration scale where inhibition reaches its midpoint.

Structures are written as SMILES. “Also recorded” adds a separate entry of the source. Structures can show the parent of a compound that is named as a salt. Where two headings read alike, the source gives them in different places.

The target in test [1] is T1, human TIMP-3 (Homo sapiens, UniProt P35625).
T1 construct: made in house; host or cells: human embryonic kidney 293 cells
T1 sequence (P35625 24-211): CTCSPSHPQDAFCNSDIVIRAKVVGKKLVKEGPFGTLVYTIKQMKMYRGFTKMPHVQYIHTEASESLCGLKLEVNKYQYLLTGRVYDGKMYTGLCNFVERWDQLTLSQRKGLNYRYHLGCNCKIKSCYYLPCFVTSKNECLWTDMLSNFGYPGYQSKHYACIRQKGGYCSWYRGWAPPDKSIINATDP
As to the kind of experiment: Solid-phase binding of TIMP-3 to immobilized suramin or analogs (ELISA). To be noted: TIMP-3 0.4–50 nM; for EC50: plates coated with 10 µg/ml compound, one-site specific binding model, mean ± S.E., n = 3; for Kd: solid-phase binding assay, plates coated 10 µg/ml, read-out: KD value for TIMP-3 binding to immobilized compound. The protocol:
Glycosaminoglycan-binding ELISA plates (BD Life Sciences, Swindon, UK) were coated with suramin or its analogs (10 µg/ml in Tris-buffered saline, 18 hours, 25°C) ([Mahoney et al., 2004]) and wells were blocked with 0.2% gelatin in PBS (1 hour, 37°C). Wells were washed in PBS containing 0.1% Tween 20 after this and every subsequent step. Purified FLAG-tagged human TIMP-3 (0.4–50 nM) in blocking solution was applied to wells (3 hours, 37°C), and binding was detected with anti-FLAG M2 primary antibody and anti-mouse horseradish peroxidase–conjugated secondary antibody. 3,3′,5,5′-Tetramethylbenzidine (Becton Dickinson, Swindon, UK) substrate was added, the reaction was stopped when appropriate by adding 2 N H2SO4, and absorbance at 450 nm was measured using a FLUOstar Omega microplate reader (BMG Labtech, Aylesbury, Buckinghamshire, UK). Data (mean ± S.E., n = 3 technical repeats) were analyzed using Prism 7.0b software (GraphPad Software, La Jolla, CA) and EC50 values determined using a one-site specific binding model. Flat planar dimensions of suramin analogs were estimated using ICM-Pro software (Molsoft LLC, San Diego, CA).

For test [2], the system named is HTB94 chondrosarcoma cells. As to the kind of experiment: Accumulation of endogenous TIMP-3 in medium of HTB94 cells. The format is cell-based. To be noted: 200 µg/ml compound, 36 hours, immunoblotting. The protocol: Cells (HTB94 chondrosarcoma cells, primary porcine chondrocytes, or human osteoarthritic chondrocytes) were plated overnight (6 × 10^5 cells per well of a 12-well plate) in DMEM containing 10% FCS and washed three times in serum-free DMEM.
Media were harvested, precipitated with trichloroacetic acid, and analyzed by immunoblotting using a rabbit anti–TIMP-3 polyclonal antibody (AB6000; Millipore, Hertfordshire, UK) and an alkaline phosphatase–conjugated anti-rabbit secondary antibody (Promega). […]
On the technique in general: Immunoblotting shows a protein as a band on a membrane.

The test system of test [3] is porcine cartilage explants. The test can be described thus: Aggrecan release from porcine cartilage explants (DMMB assay, neo-epitope immunoblotting). The following applies: porcine cartilage explants; for IC50: Sus scrofa; for protection of cartilage (release of aggrecan fragments) compared with suramin: 200 µg/ml compound. The format is cell-based. The protocol: The effects of suramin on cartilage degradation were assessed using porcine or human cartilage explants. Explants were rested for 48 hours after dissection and were washed with serum-free DMEM. […]
Aggrecan degradation was analyzed by quantifying aggrecan fragments released into the conditioned media using the dimethylmethylene blue (DMMB) dye-binding assay ([Farndale et al., 1986]) (mean ± S.D., n = 3) and by immunoblotting with neo-epitope antibodies that recognize ADAMTS-cleaved but not intact aggrecan. For immunoblotting, conditioned media were deglycosylated by adding an equal volume of 200 mM sodium acetate and 50 mM Tris/HCl, pH 6.8, containing chondroitinase and β-endoglycosidase (0.05 U each; 18 hours, 37°C; Sigma-Aldrich). Aggrecan fragments were precipitated by adding five volumes of ice-cold acetone (18 hours, −20°C). After centrifugation (13,000 rpm, 10 minutes, 4°C), pellets were resuspended in SDS sample buffer, separated by electrophoresis on a 6% (v/v) polyacrylamide gel, and blotted onto polyvinylidene fluoride. Membranes were blocked with 5% (m/v) BSA in Tris-buffered saline and incubated with either a rabbit antibody that recognizes the AGEG neo-epitope generated by ADAMTS cleavage of the TAQE^1771∼^1772AGEG bond of aggrecan ([Troeberg et al., 2008]) or a mouse antibody that recognizes the ARGSV neo-epitope generated by ADAMTS cleavage of the NITEGE^373∼^374ARGSV bond ([Hughes et al., 1995]).

In test [4] the test system is purinergic signaling in chondrocytes. The arrangement: method as in Varani et al., 2008. To be noted: compared with suramin; ref Varani et al., 2008; cited from earlier work.
Where [5] appears, read: retinoic acid 1 µM, 48 hours, DMMB assay.

`O=C(Nc1cccc(C(=O)Nc2ccc(S(=O)(=O)O)c3cc(S(=O)(=O)O)cc(S(=O)(=O)O)c23)c1)Nc1cccc(C(=O)Nc2ccc(S(=O)(=O)O)c3cc(S(=O)(=O)O)cc(S(=O)(=O)O)c23)c1` [NF023, 8,8′-[carbonylbis(imino-3,1-phenylenecarbonylimino)]bis-1,3,5-naphthalene-trisulphonic acid, hexasodium salt]: the EC50 in test [1] came out at 26.5 ± 7.5 nM.

Compound `O=C(Nc1cc(C(=O)Nc2ccc(S(=O)(=O)O)cc2)cc(C(=O)Nc2ccc(S(=O)(=O)O)cc2)c1)Nc1cc(C(=O)Nc2ccc(S(=O)(=O)O)cc2)cc(C(=O)Nc2ccc(S(=O)(=O)O)cc2)c1` [NF110, 4,4′,4′′,4′′′-[carbonylbis[imino-5,1,3-benzenetriylbis(carbonylimino)]]tetrakisbenzenesulfonic acid tetrasodium salt] returned an EC50 in test [1] of 6.88 ± 0.96 nM.

On to `O=C(Nc1cccc(C(=O)Nc2cc(C(=O)Nc3ccc(S(=O)(=O)O)c4cc(S(=O)(=O)O)cc(S(=O)(=O)O)c34)ccc2F)c1)Nc1cccc(C(=O)Nc2cc(C(=O)Nc3ccc(S(=O)(=O)O)c4cc(S(=O)(=O)O)cc(S(=O)(=O)O)c34)ccc2F)c1` [NF157, 8,8′-[carbonylbis[imino-3,1-phenylenecarbonylimino(4-fluoro-3,1-phenylene)carbonylimino]]bis-1,3,5-naphthalenetrisulfonic acid hexasodium salt], for which, in test [1], the half-maximal effective concentration (EC50) was found to be 1.55 ± 0.11 nM and the equilibrium dissociation constant (Kd) was 1.5 ± 0.11 nM.

For the compound `O=C(Nc1ccc(C(=O)Nc2ccc(C(=O)Nc3ccc(S(=O)(=O)O)c4cc(S(=O)(=O)O)cc(S(=O)(=O)O)c34)cc2)cc1)Nc1ccc(C(=O)Nc2ccc(C(=O)Nc3ccc(S(=O)(=O)O)c4cc(S(=O)(=O)O)cc(S(=O)(=O)O)c34)cc2)cc1` [NF279, 8,8′-[carbonylbis(imino-4,1-phenylenecarbonylimino-4,1-phenylenecarbonylimino)]bis-1,3,5-naphthalenetrisulfonic acid hexasodium salt], in test [1], the EC50 turned out to be 0.85 ± 0.09 nM and the dissociation constant (Kd) amounted to 0.85 ± 0.09 nM. The “TIMP-3 accumulation in the medium relative to suramin, defined as 100%” value in test [2] was 233% ± 73%. Moreover, the IC50 in test [3] (48 h, retinoic acid 1 µM, 48 hours, DMMB assay, read-out: IC50 for inhibition of aggrecan release) was 15.6 ± 10 µg/mL. In addition, the IC50 in test [3] (µg/ml value given in molar units, read-out: IC50 for chondroprotective activity) was 11600 nM. Besides, in test [3], the “improvement of IC50 value relative to suramin” value is reported as 6 fold. In test [3] (setting [5]), the “protection of cartilage (release of aggrecan fragments) compared with suramin” value (“protection of cartilage … compared with suramin” below) is given as “markedly improved activity” and the “IC50 for inhibition of aggrecan release” value worked out at 15 µg/mL. For the same compound, the “inhibition of purinergic signaling in chondrocytes” value in test [4] is recorded as “less effective than suramin”.

Take `Cc1ccc(C(=O)Nc2cc(S(=O)(=O)[O-])cc3ccc(S(=O)(=O)[O-])cc23)cc1NC(=O)Nc1cc(C(=O)Nc2cc(S(=O)(=O)[O-])cc3ccc(S(=O)(=O)[O-])cc23)ccc1C.[Na+].[Na+].[Na+].[Na+]` [NF340, 4,4′-(carbonylbis(imino-3,1-(4-methyl-phenylene)carbonylimino))bis(naphthalene-2,6-disulfonic acid) tetrasodium salt]: in test [1], the EC50 was over 100 nM. In test [2], the “TIMP-3 accumulation in the medium relative to suramin, defined as 100%” value is on record as “minimal efficacy; also recorded: less effective”. In test [3] (setting [5]), the “protection of cartilage … compared with suramin” value is “less effective”.

As to `O=C(Nc1cc(C(=O)Nc2ccc(S(=O)(=O)O)cc2S(=O)(=O)O)cc(C(=O)Nc2ccc(S(=O)(=O)O)cc2S(=O)(=O)O)c1)Nc1cc(C(=O)Nc2ccc(S(=O)(=O)O)cc2S(=O)(=O)O)cc(C(=O)Nc2ccc(S(=O)(=O)O)cc2S(=O)(=O)O)c1` [NF449, 4,4′,4′′,4′′′-[carbonylbis(imino-5,1,3-benzenetriyl-bis(carbonylimino))]tetrakis-1,3-benzenedisulfonic acid, octasodium salt], in test [1], the EC50 worked out at 4.66 ± 0.69 nM.

For `Cc1ccc(C(=O)Nc2ccc(CP(=O)([O-])O)cc2CP(=O)([O-])O)cc1NC(=O)c1cccc(NC(=O)Nc2cccc(C(=O)Nc3cc(C(=O)Nc4ccc(CP(=O)([O-])O)cc4CP(=O)([O-])O)ccc3C)c2)c1.[Na+].[Na+].[Na+].[Na+]` [NF546, 4,4′-(carbonylbis(imino-3,1-phenylene-carbonylimino-3,1-(4-methyl-phenylene)carbonylimino))-bis(1,3-xylene-α,α′-diphosphonic acid tetrasodium salt], the EC50 in test [1] is over 100 nM.

`Cc1ccc(C(=O)Nc2ccc(CP(=O)([O-])O)cc2CP(=O)([O-])O)cc1NC(=O)c1cccc(NC(=O)Nc2cccc(C(=O)Nc3cc(C(=O)Nc4ccc(CP(=O)([O-])O)cc4CP(=O)([O-])O)ccc3C)c2)c1.[Na+].[Na+].[Na+].[Na+]` [NF546]: the “TIMP-3 accumulation in the medium relative to suramin, defined as 100%” value in test [2] is “minimal efficacy; also recorded: less effective”. The “protection of cartilage … compared with suramin” value in test [3] (setting [5]) was “less effective”.
